From patent US10022326B2, “Liposomal compositions of epoxyketone-based proteasome inhibitors” (ONYX THERAPEUTICS, INC., priority 2012, dated 2018)

Target: T1, chymotrypsin-like activity of the proteasome (Mus musculus, UniProt O55234)
T1 construct: measurement of proteasome activity in whole blood (primarily erythrocytes); from tissue; host or cells: whole blood (primarily erythrocytes), adrenal, liver and heart of BALB/C mice
T1 sequence (O55234 60-264): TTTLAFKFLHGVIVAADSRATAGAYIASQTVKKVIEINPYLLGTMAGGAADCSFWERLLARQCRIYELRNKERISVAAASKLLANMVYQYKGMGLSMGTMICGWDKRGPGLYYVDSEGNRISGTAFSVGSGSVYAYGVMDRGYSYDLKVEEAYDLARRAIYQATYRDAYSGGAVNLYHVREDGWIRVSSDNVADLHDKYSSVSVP
Assay: Pharmacodynamic response: proteasome activity in whole blood, adrenal, liver and heart (LLVY-AMC substrate)
Type: in vivo, BALB/C mice
Settings: mice, single i.v. dose, whole blood (primarily erythrocytes), up to 24 hours
Protocol: The pharmacodynamic response of carfilzomib formulated in SBE-B-CD (CFZ SBE-B-CD) (using a non-liposomal, injectable composition of carfilzomib formulated in 10% sulfobutylether beta cyclodextrin (SBE-B-CD), 10 mM Citrate, pH 3.5 (see, e.g., U.S. Patent Publication Nos. 2011/0236428)), empty liposomes (Composition D), liposomes comprising CFZ (L-CFZ, Composition C), and pegylated liposomes comprising (pL-CFZ, Composition E) was evaluated in BALB/C mice following a single intravenous bolus administration.
The mice (three mice per time point) were administered a dose of 10 mg/kg in a dose volume of 5 mL/kg. […] The pharmacodynamic response was determined by measurement of proteasome activity in whole blood (primarily erythrocytes) (see FIG. 2A), adrenal (see FIG. 2B), liver (see FIG. 2C), and heart (see FIG. 2D), using a fluorogenic substrate (LLVY-AMC [Leu-Leu-Val-Tyr-AMC {AMC=7-amido 4-methylcoumarin}]; as described by Lightcap E S, McCormack T A, Pien C S, et al., Clin. Chem. 46:673-683 (2000)) to quantitate the chymotrypsin-like activity of the proteasome. […] Three tissue samples were evaluated per time point for each tissue from each mouse.
The pharmacodynamic response of liposomal compositions comprising liposomes comprising an aqueous core loaded with CFZ complexed with SBE-B-CD was evaluated in BALB/C mice following a single intravenous bolus administration. […]

CC(C)C[C@H](NC(=O)[C@H](CCc1ccccc1)NC(=O)CN1CCOCC1)C(=O)N[C@@H](Cc1ccccc1)C(=O)N[C@@H](CC(C)C)C(=O)[C@@]1(C)CO1 [carfilzomib]
recovery of proteasome activity in blood: no recovery
